# Literature values, collected in US20100210792A1, “DRUG DELIVERY” (priority 2006, published 2010).
# Conditions: Table 1 drug list
smiles,measurement,value
CC[C@H]1OC(=O)[C@H](C)[C@@H](O[C@H]2C[C@@](C)(OC)[C@@H](O)[C@H](C)O2)[C@H](C)[C@@H](O[C@@H]2O[C@H](C)C[C@H](N(C)C)[C@H]2O)[C@](C)(OC)C[C@@H](C)C(=O)[C@H](C)[C@@H](O)[C@]1(C)O [Clarithromycin],Hydrophobic,YES
CN[C@H]1CC[C@@H](c2ccc(Cl)c(Cl)c2)c2ccccc21 [Sertradine],Hydrophobic,YES
"Cc1nc2n(c(=O)c1CCN1CCC(c3noc4cc(F)ccc34)CC1)CCCC2 [Risperidone, 4-[2-[4-(6-fluorobenzo[d]isoxazol-3-yl)-1-piperidyl]ethyl]-3-methyl-2,6-diazabicyclo[4.4.0]deca-1,3-dien-5-one]",Hydrophobic,YES
CC(C)c1c(C(=O)Nc2ccccc2)c(-c2ccccc2)c(-c2ccc(F)cc2)n1CC[C@@H](O)C[C@@H](O)CC(=O)O [Atorvastatin],Hydrophobic,YES
OCCOCCN1CCN(C2=Nc3ccccc3Sc3ccccc32)CC1 [Quetiapine],Hydrophobic,YES
CC(C)c1nc(N(C)S(C)(=O)=O)nc(-c2ccc(F)cc2)c1/C=C/[C@@H](O)C[C@@H](O)CC(=O)O [Rosuvastatin],Hydrophobic,YES
Cc1c(OCC(F)(F)F)ccnc1C[S+]([O-])c1nc2ccccc2[nH]1 (centres unmarked) [Lansoprazole],Hydrophobic,YES
COc1ccc2nc([S@@+]([O-])Cc3ncc(C)c(OC)c3C)[nH]c2c1 [Esomeprazole],Hydrophobic,YES
